We go through five molecules from ChEMBL document CHEMBL4184221, “Identification and optimization of soluble epoxide hydrolase inhibitors with dual potency towards fatty acid amide hydrolase” (Bioorg Med Chem Lett, 2018).

Test [1] deals with T1, Bifunctional epoxide hydrolase 2 (Homo sapiens, UniProt P34913).
T1 sequence (P34913 whole entry): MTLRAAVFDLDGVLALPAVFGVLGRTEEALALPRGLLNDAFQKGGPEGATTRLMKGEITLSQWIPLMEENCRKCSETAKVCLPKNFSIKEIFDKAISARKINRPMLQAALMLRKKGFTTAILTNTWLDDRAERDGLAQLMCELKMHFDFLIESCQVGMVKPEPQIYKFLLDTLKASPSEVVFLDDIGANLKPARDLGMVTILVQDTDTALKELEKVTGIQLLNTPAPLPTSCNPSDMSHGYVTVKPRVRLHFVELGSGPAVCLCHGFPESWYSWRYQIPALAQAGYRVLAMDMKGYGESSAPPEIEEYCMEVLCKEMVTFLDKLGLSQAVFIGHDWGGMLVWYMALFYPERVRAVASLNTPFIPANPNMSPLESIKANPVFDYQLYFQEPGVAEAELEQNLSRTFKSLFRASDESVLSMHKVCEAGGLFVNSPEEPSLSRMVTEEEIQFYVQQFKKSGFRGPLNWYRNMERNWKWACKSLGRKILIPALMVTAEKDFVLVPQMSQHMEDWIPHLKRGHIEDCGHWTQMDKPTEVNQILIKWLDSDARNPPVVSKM
As to the kind of experiment: Inhibition of human recombinant soluble epoxide hydrolase expressed in baculovirus-infected High Five cells S9 fraction using CMNPC substrate by fluorescence based assay. In kind it is cell-based.

In test [2] the target is T2, Bifunctional epoxide hydrolase 2 (Homo sapiens) (UniProt P34913).
T2 sequence (whole entry): T1 sequence (P34913 whole entry)

The species named for another test is Felis catus. As to the kind of experiment: Inhibition of FAAH in cat brain microsomes using OMP substrate by fluorescence based assay. The note with it: concentration not given here.
For the next test, the species on record is Canis lupus familiaris. The experiment in a line: Inhibition of FAAH in dog brain microsomes using OMP substrate by fluorescence based assay. The note with it: concentration not given here.
Test [3] is described as follows: (§1) Inhibition of FAAH in horse brain microsomes using OMP substrate by fluorescence based assay. On the set-up: species or system Equus caballus.
A further test is filed under the species Equus caballus. Described as §1. The note with it: concentration not given here.

Calls of active or inactive are those of the source. The rule behind the calls is not given here.

Broadly, the IC50 is the point on the concentration scale where inhibition reaches its midpoint. With `O=C(Nc1ccc(Oc2ccc(C(=O)O)cc2)cc1)Nc1ccc(OC(F)(F)F)cc1`, the IC50 in test [1] stood at 7 nM.

On to `O=C(Nc1ccc(Cl)cc1)N[C@H]1CC[C@H](Oc2ccc(C(=O)O)cc2)CC1`, for which, in test [1], the IC50 is 7 nM.

For `O=C(NC1CCCCC1)N[C@H]1CC[C@H](Oc2ccc(C(=O)O)cc2)CC1`, the IC50 in test [1] came to 6 nM.

Consider `O=C(Nc1ccc(OC(F)(F)F)cc1)N[C@H]1CC[C@H](Oc2ccc(C(=O)O)cc2)CC1`, for which the TDI result in test [2] is “inactive”.

By inhibition is commonly meant the percentage by which the read-out fell short of the control. Take `NC(=O)c1cccc(-c2cccc(OC(=O)NC3CCCCC3)c2)c1` [URB-597]: the results for the IC50 in test [1] and in test [3] were 1100 nM and 7 nM, respectively. The inhibition in the test filed under Felis catus, in the test listed under Canis lupus familiaris and in the test filed under Equus caballus was over 80% in each case. Also, in test [2], the TDI result is “Active”.
